Laboratory results from patent US20030166721A1, “Choline derivative for the treatment of alzheimer's disease” (priority 2000, published 2003).

Key:
Wistar rats [1] = assay: Behavioural and EEG effects in rats at different doses; format: in vivo, rat
Protocol: Young male Wistar rats (200-260) were used in the experiments, housed in a standard temperature and humidity conditions, with food and water ad libitum.
The animals, anaesthetised with chloral hydrate (400 mg/kg) […], were stereotaxically implanted (Kopft Instruments) with cortical electrodes (n=4) onto the fronto-parietal region of the neocortex on both cerebral hemispheres, to record EEG. After surgery all animals were housed 48 h to allow a complete recovery.
48 Hours after electrode implantation, the animals, placed in a transparent box and freely moving, were connected with an electroencephalograph and the electrocortical activity was continuously monitored and recorded. After a 30 min control time, the compounds under test were intraperitoneally administered and EEG recording was continued for 90-120 min
EEG was recorded by computerised 24-channels apparatus (Vega 24, Galileo type, ESA-OTE Biomedica, Florence, Italy), while the spectrum activity was quantitatively analysed by a Berg Fourier analyser (ESA-OTE Biomedica, Florence, Italy). The total EEG power (0.25-16 Hz range) was divided into 5 variable frequency bands: δ 0.25-3 Hz, θ 3-6; α1 6-9; α2 9-12 and β12-16 Hz.
The EEG patterns and behavioral effects observed in the rat after administration of the choline derivatives and of the vehicle is reported in 5 Tab. 3. Such effects can be ascribed to the changes of EEG spectrum total power. An […] in EEG total power is related with the presence of slow frequency waves (synchronisation), whereas an […] thereof is related with the presence of rapid frequency waves (desynchronisation).

Wistar rats [2] = assay: EEG spectral qualitative and quantitative analysis in freely moving rats after i.p. administration; format: in vivo, rat; conditions: for EEG frequency band 0.25-3 Hz / EEG frequency band 3-6 Hz / EEG frequency band 6-9 Hz / EEG frequency band 9-12 Hz / EEG frequency band 12-16 Hz: after i.p. administration, % ± SEM; for Effect of atropine given 15 min before the compound: atropine pretreatment; for EEG total power (fronto-parietal cortex), Baseline: before i.p. injection (vol. 0.5 ml); for EEG total power (fronto-parietal cortex), Baseline / EEG total power (fronto-parietal cortex), 15′ / EEG total power (fronto-parietal cortex), 30′ / EEG total power (fronto-parietal cortex), 45′ / EEG total power (fronto-parietal cortex), 60′ / EEG total power (fronto-parietal cortex), 75′ / EEG total power (fronto-parietal cortex), 90′: mean ± SEM, 7 tests; for EEG total power (fronto-parietal cortex), 15′ / EEG total power (fronto-parietal cortex), 30′ / EEG total power (fronto-parietal cortex), 45′ / EEG total power (fronto-parietal cortex), 60′ / EEG total power (fronto-parietal cortex), 75′ / EEG total power (fronto-parietal cortex), 90′: i.p. (vol. 0.5 ml)
Protocol: Young male Wistar rats (200-260) were used in the experiments, housed in a standard temperature and humidity conditions, with food and water ad libitum. […] After surgery all animals were housed 48 h to allow a complete recovery. 48 Hours after electrode implantation, the animals, placed in a transparent box and freely moving, were connected with an electroencephalograph and the electrocortical activity was continuously monitored and recorded. […] Qualitative and quantitative analysis on the electrocortical activity EEG recording was subsequently carried out. The animals were divided in 4 groups, the first group acted as the control, the second received cytidine-5′-diphosphocholine (CDP-choline), the third and fourth received PC-1 and PC-2, respectively (pivaloylcholine iodide and pivaloyleholine trimethylacetate, respectively). The control group received an equal volume of saline solution by the same procedure. […] Statistical analysis was performed by analysis of variance (ANOVA) for multiple measurements followed, if significant, by the post-hoc Tuckey-Kramer test. A comparison between groups was performed to exclude any individual variability.

[3] = biological target: T1, Choline Specific Transport System (HUCT) (Rattus norvegicus, UniProt Q9JMD7); assay: EEG after ICV Hemicholinium-3 (choline uptake blocker) pretreatment; format: in vivo; conditions: rats, ICV 1 μg-0.1 ng
T1 construct: from tissue; host or cells: brain of living Wistar rats (in vivo, ICV microinfusion, EEG read-out)
T1 sequence (Q9JMD7 1-580): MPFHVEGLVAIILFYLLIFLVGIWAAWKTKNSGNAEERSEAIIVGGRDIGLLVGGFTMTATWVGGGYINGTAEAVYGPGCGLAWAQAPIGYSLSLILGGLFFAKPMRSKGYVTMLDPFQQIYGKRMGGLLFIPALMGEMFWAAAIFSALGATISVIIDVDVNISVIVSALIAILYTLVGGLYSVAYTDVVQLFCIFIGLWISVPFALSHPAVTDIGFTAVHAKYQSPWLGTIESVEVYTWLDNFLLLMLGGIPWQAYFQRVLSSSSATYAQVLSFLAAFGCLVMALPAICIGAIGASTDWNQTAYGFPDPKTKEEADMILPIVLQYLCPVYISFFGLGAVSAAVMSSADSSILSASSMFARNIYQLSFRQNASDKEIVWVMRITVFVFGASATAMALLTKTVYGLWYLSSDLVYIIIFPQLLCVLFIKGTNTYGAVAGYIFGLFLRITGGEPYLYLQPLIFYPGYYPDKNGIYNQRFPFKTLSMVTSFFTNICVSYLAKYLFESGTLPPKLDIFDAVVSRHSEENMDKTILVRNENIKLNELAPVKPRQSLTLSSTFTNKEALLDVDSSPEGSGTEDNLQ
Protocol: FIG. 4B—Effect on EEG spectrum power after treatment with PC-1 (5 mg i.p.) administered 15 min after microinfusion of Hch3 (0.1 ng/0.5 μl) in the III ventricule. As in FIG. 4a, time (min) is reported in abscissa, the EEG spectrum power expressed as μV^2/s is reported in ordinate. Graphics report the EEG spectrum total power (0.25-16 Hz).

rats = assay: Synergistic effect with tacrine: qEEG of neocortical activity in rats; format: in vivo, rat; conditions: n=7; for EEG power (qEEG of neocortical activity), 15″ / EEG power (qEEG of neocortical activity), 30″ / EEG power (qEEG of neocortical activity), 45″ / EEG power (qEEG of neocortical activity), 60″ / EEG power (qEEG of neocortical activity), 75″ / EEG power (qEEG of neocortical activity), 90″ / EEG power (qEEG of neocortical activity), 105″ / EEG power (qEEG of neocortical activity), 120″ / EEG power (qEEG of neocortical activity), 135″: rats i.p., PC-1/PC-2 15 μmol/2 ml/kg, THA 5 mg/kg 30 min before, atropine 0.1 mg/kg 15 min before; for EEG power (qEEG of neocortical activity), Baseline: before i.p. treatment
Protocol: Results reported in Table 5 show the synergistic effect of the combination of tacrine with the choline derivatives of the present invention.
Vehicle: 2 ml/Kg; all drugs were administered i.p., PC-1 and PC-2 at corresponding equimolar doses (15 μmol/2 ml/kg^−1); THA (tacrine) (5 mg/kg) was administered 30 min before compounds; atropine (0.1 mg/kg) was injected 15 min before PC-1 and PC-2. The number of animals was 7 per each group. Values represent EEG power (μV/s).

Compound	Behaviour (Wistar rats [1]; 5 mg)	EEG Activity (change of EEG total power) (Wistar rats [1]; 5 mg)	Behaviour (Wistar rats [1]; 50 mg)	EEG Activity (change of EEG total power) (Wistar rats [1]; 50 mg)	Time to onset of EEG desynchronization and significant decrease in EEG total power (Wistar rats [2]; 5 mg i.p.)	EEG frequency band 0.25-3 Hz (Wistar rats [2])	EEG frequency band 3-6 Hz (Wistar rats [2])	EEG frequency band 6-9 Hz (Wistar rats [2])	EEG frequency band 9-12 Hz (Wistar rats [2])	EEG frequency band 12-16 Hz (Wistar rats [2])	Effect of atropine given 15 min before the compound (Wistar rats [2])	EEG total power (fronto-parietal cortex), Baseline (Wistar rats [2])	EEG total power (fronto-parietal cortex), 15′ (Wistar rats [2])	EEG total power (fronto-parietal cortex), 30′ (Wistar rats [2])	EEG total power (fronto-parietal cortex), 45′ (Wistar rats [2])	EEG total power (fronto-parietal cortex), 60′ (Wistar rats [2])	EEG total power (fronto-parietal cortex), 75′ (Wistar rats [2])	EEG total power (fronto-parietal cortex), 90′ (Wistar rats [2])	EEG power (qEEG of neocortical activity), 15″ (rats)	EEG power (qEEG of neocortical activity), 30″ (rats)	also measured
C[N+](C)(C)CCOP(=O)(O)OP(=O)([O-])OC[C@H]1O[C@@H](n2ccc(N)nc2=O)[C@H](O)[C@@H]1O [CDP-choline, cytidine-5′-diphosphocholine, reference compound]	Alert response	Decrease	Sedation	No effects	60 min	3.8 ± 1.3(*) %	19.2 ± 1.5(*) %	31.5 ± 0.9%	18.5 ± 1.7%	20.5 ± 1.3%	antagonize the effects	98 ± 3.6	93 ± 2.9	271 ± 3.2	89 ± 2.9	65 ± 2(*)	95 ± 3.3	103 ± 2.6			Behaviour (Wistar rats [1]; 1 mg): No effects; EEG Activity (change of EEG total power) (Wistar rats [1]; 1 mg): No effects; Behaviour (Wistar rats [1]; 25 mg): Sedation; EEG Activity (change of EEG total power) (Wistar rats [1]; 25 mg): Increase
C[N+]1(C)CCOC(O)(c2ccc(-c3ccc(C4(O)C[N+](C)(C)CCO4)cc3)cc2)C1.[Br-].[Br-] (centres unmarked) [Hch3, Hemicholinium-3, reference compound]																					Behavioural and EEG effect of ICV administration [3]: behavioural sedation and sleep, EEG synchronization and increase in EEG total power
Nc1c2c(nc3ccccc13)CCCC2 [THA, tacrine, reference compound]																			72.5 μV/s	68 μV/s	EEG power (qEEG of neocortical activity), 45″ (rats): 75.5 μV/s; EEG power (qEEG of neocortical activity), 60″ (rats): 97.5 μV/s; EEG power (qEEG of neocortical activity), 75″ (rats): 122 μV/s; EEG power (qEEG of neocortical activity), 90″ (rats): 129.5 μV/s; EEG power (qEEG of neocortical activity), 105″ (rats): 135 μV/s; EEG power (qEEG of neocortical activity), 120″ (rats): 137 μV/s; EEG power (qEEG of neocortical activity), 135″ (rats): 119.5 μV/s; EEG power (qEEG of neocortical activity), Baseline (rats; rats): 118 μV/s
pivaloylcholine trimethylacetate [PC-2]	Alert response	Decrease	Convulsions and death (50%)	Peaks	≤ 15 min	2.4 ± 1.3(**) %	21.3 ± 0.9%	22.3 ± 1.3%	13.5 ± 0.7%	22.5 ± 1.6(*) %	antagonize the effects	93 ± 3.5	50 ± 1.9(**)	55 ± 2.5(*)	90 ± 3.3	132 ± 1.5(*)	96 ± 2.7	90 ± 3.6	58.5 μV/s	64.5 μV/s	EEG power (qEEG of neocortical activity), 45″ (rats): 98 μV/s; EEG power (qEEG of neocortical activity), 60″ (rats): 103 μV/s; EEG power (qEEG of neocortical activity), 75″ (rats): 97.5 μV/s; EEG power (qEEG of neocortical activity), 90″ (rats): 110.3 μV/s; EEG power (qEEG of neocortical activity), 105″ (rats): 124 μV/s; EEG power (qEEG of neocortical activity), 120″ (rats): 120.5 μV/s; EEG power (qEEG of neocortical activity), 135″ (rats): 117.5 μV/s; EEG effect with tacrine given 30 min before (rats; rats, THA 5 mg/Kg i.p. 30 min before 15 μmol i.p.): long-lasting EEG desynchronization and significant decrease in EEG spectrum total power; EEG power (qEEG of neocortical activity), Baseline (rats; rats): 105 μV/s; Change of slow EEG spectrum components (FIG. 3) (Wistar rats [2]): decrease in slow components (delta and theta) of the spectrum; Duration of the decrease in EEG total power (Wistar rats [2]; 5 mg i.p.): about 30 min; EEG 60 min after administration (Wistar rats [2]; 5 mg i.p., 60 min): rapid frequency activity (about 16 Hz) and significant increase (P<0.01) in EcoG total power
